From ChEMBL document CHEMBL5096145, “Evaluation of imidazo[2,1-b]thiazole-based anticancer agents in one decade (2011-2020): Current status and future prospects” (Bioorg Med Chem, 2021)
One block for each compound: values may come before it.

Experiments:
DU-145 [1] = experiment: Cytotoxicity against human DU-145 cells assessed as reduction in cell viability; assay type: functional, cell-based
DU-145 [2] = experiment: Potency index, ratio of sorafenib IC50 to test compound IC50 for cytotoxicity against human DU-145 cells; assay type: functional
HT-29 = experiment: Cytotoxicity against human HT-29 cells assessed as reduction in cell viability relative to control; assay type: functional
MDA-MB-231 [3] = experiment: Antiproliferative activity against human MDA-MB-231 cells measured after 48 hrs by MTT assay; assay type: functional, cell-based; details: MDA-MB-231, 48 h
A549 [4] = experiment: Induction of apoptosis in human A549 cells assessed as increase in caspase-3 level at 1 uM measured after 48 hrs by ELISA method relative to control (RVB = 9.1 %); assay type: functional
MDA-MB-231 [5] = experiment: Antiproliferative activity human MDA-MB-231 cells; assay type: functional, cell-based
MCF7 = experiment: Antiproliferative activity human MCF7 cells; assay type: functional, cell-based
A549 [6] = experiment: Antiproliferative activity human A549 cells; assay type: functional, cell-based
A549 [7] = experiment: Antiproliferative activity against human A549 cells incubated for 48 hrs by MTT assay; assay type: functional, cell-based; details: A549, 48 h
A549 [8] = experiment: Inhibition of tubulin polymerisation in human A549 cells relative to control; assay type: cell-based; details: dose or concentration not given here
[9] = Inhibition of tubulin polymerisation in human A549; assay type: cell-based
A-375 [10] = experiment: Cytotoxicity against human A-375 cells by MTT assay; assay type: functional, cell-based
OVCAR-5 = experiment: Cytotoxicity against human OVCAR-5 cells assessed as inhibition of cell growth; assay type: functional, cell-based
A549 [11] = experiment: Induction of cell cycle arrest in human A549 cells assessed as accumulation of cells at G2/M phase at 1 uM by flow cytometric analysis relative to control; assay type: functional
A549 [12] = experiment: Induction of cell cycle arrest in human A549 cells assessed as accumulation of cells at G2/M phase at 2 uM by flow cytometric analysis relative to control; assay type: functional
A549 [13] = experiment: Induction of apoptosis in human A549 cells at 1 uM measured after 48 hrs by Annexin V-FITC analysis; assay type: functional
A549 [14] = experiment: Induction of apoptosis in human A549 cells at 2 uM measured after 48 hrs by Annexin V-FITC analysis; assay type: functional
A-375 [15] = experiment: Antiproliferative activity against human A375 cells measured after 48 hrs by MTT assay; assay type: functional, cell-based; details: A-375, 48 h
MDA-MB-435 = experiment: Antiproliferative activity against human MDA-MB-435 cells measured after 48 hrs by MTT assay; assay type: functional, cell-based; details: MDA-MB-435, 48 h
SK-MEL-28 = experiment: Antiproliferative activity against human SK-MEL-28 cells measured after 48 hrs by MTT assay; assay type: functional, cell-based; details: SK-MEL-28, 48 h
UACC-62 [16] = experiment: Antiproliferative activity against human UACC-62 cells measured after 48 hrs by MTT assay; assay type: functional, cell-based; details: UACC-62, 48 h
[17] = Inhibition of BRAF V600E mutant in MEF cells incubated for 90 mins; assay type: cell-based, Mus musculus
UACC-62 [18] = experiment: Induction of apoptosis in human UACC-62 cells assessed as increase in caspase-3/7 release at 0.18 uM relative to control; assay type: functional
[19] = target: Serine/threonine-protein kinase B-raf (Homo sapiens, UniProt P15056, V600E); experiment: Inhibition of human BRAF V600E mutant using MEK1 as substrate in presence of ATP
[20] = target: Serine/threonine-protein kinase B-raf (Homo sapiens) (UniProt P15056); experiment: Inhibition of wildtype BRAF (unknown origin) using MEK1 as substrate in presence of ATP relative to control; details: concentration not given here
[21] = system: Serine/threonine-protein kinase B-raf (Homo sapiens), P15056 [V600E]; experiment: Inhibition of human BRAF V600E mutant using MEK1 as substrate in presence of ATP relative to control; details: concentration not given here
Breast carcinoma cell = experiment: Cytotoxicity against human breast cancer cell line assessed as reduction in cell viability by MTT assay relative to control; assay type: functional
CNS carcinoma cell = experiment: Cytotoxicity against human CNS carcinoma cells assessed as reduction in cell viability by MTT assay relative to control; assay type: functional
[22] = Cytotoxicity against human Colon carcinoma cells assessed as reduction in cell viability by MTT assay relative to control; assay type: functional
Leukemic tumor cell line = experiment: Cytotoxicity against human leukemic tumor cell line assessed as reduction in cell viability by MTT assay relative to control; assay type: functional
Melanoma tumor cell line = experiment: Cytotoxicity against human melanoma tumor cell line assessed as reduction in cell viability by MTT assay relative to control; assay type: functional
[23] = system: Non-small cell lung cancer cell line; experiment: Cytotoxicity against human non-small cell lung cancer cell line assessed as reduction in cell viability by MTT assay relative to control; assay type: functional
Ovarian cancer cell line = experiment: Cytotoxicity against human ovarian cancer cell line assessed as reduction in cell viability by MTT assay relative to control; assay type: functional
Prostatic carcinoma cell = experiment: Cytotoxicity against human prostatic carcinoma cell assessed as reduction in cell viability by MTT assay relative to control; assay type: functional
Renal cancer cell line = experiment: Cytotoxicity against human renal cancer cell line assessed as reduction in cell viability by MTT assay relative to control; assay type: functional
[24] = Cytotoxicity against human L132 cells by MTT assay; assay type: toxicity, cell-based
MDA-MB-231 [25] = experiment: Induction of cell cycle arrest in human MDA-MB-231 cells assessed as accumulation of cells at G0/G1 phase measured at 1 uM incubated for 24 hrs by flow cytometric analysis relative to control; assay type: functional
HCT-116 = experiment: Anticancer activity against human HCT-116 cells measured after 48 hrs by MTT assay; assay type: functional, cell-based; details: HCT-116, 48 h
OVCAR-3 = experiment: Anticancer activity against human OVCAR-3 cells incubated for 48 hrs by SRB staining assay; assay type: functional

Serine/threonine-protein kinase B-raf, sequence (P15056 2-766 V600E limits assumed): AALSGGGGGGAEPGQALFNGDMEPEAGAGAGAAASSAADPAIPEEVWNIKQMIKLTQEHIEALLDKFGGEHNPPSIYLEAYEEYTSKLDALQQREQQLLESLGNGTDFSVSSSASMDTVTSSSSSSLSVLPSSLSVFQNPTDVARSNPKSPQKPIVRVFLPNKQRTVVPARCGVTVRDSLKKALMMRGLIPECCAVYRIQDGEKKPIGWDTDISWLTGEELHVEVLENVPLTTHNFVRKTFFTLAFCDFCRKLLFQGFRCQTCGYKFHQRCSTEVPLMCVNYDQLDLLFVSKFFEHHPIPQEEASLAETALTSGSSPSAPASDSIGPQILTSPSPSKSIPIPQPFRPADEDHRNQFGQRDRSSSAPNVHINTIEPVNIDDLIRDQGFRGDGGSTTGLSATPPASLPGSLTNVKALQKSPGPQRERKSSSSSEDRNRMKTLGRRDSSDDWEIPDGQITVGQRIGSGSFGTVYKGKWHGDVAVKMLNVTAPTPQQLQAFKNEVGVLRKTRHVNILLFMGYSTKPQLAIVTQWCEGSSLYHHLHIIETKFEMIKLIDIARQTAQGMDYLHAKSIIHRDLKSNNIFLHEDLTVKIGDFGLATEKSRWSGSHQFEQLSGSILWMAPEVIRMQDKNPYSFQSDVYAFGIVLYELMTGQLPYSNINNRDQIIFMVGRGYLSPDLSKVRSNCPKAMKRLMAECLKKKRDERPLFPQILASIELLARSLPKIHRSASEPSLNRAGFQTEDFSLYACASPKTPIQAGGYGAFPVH
Serine/threonine-protein kinase B-raf (Homo sapiens), P15056 [V600E], sequence (P15056 whole entry V600E): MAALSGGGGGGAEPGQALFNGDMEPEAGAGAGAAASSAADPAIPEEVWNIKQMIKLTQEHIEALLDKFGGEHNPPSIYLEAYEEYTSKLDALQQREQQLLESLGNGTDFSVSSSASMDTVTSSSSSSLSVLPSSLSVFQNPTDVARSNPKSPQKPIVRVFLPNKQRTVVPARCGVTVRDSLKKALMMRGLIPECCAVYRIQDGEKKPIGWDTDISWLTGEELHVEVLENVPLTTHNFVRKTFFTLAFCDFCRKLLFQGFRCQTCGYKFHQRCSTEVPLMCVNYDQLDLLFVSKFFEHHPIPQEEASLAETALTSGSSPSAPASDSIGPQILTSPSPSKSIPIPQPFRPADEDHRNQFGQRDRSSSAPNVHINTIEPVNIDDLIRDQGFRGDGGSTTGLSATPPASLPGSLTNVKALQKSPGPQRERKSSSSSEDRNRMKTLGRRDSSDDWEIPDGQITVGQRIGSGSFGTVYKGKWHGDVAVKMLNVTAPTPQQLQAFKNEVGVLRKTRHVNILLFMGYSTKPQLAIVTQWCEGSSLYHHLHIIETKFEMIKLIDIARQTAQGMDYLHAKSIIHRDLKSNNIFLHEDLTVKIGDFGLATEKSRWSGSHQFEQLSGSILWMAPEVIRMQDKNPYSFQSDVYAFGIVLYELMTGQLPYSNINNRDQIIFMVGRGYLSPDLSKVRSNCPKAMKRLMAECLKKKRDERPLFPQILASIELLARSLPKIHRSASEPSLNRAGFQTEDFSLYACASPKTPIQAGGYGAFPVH
Serine/threonine-protein kinase B-raf (Homo sapiens), sequence (P15056 whole entry): as the sequence (P15056 whole entry V600E) above, with E600V counted along it

SMILES: COc1ccc(C(=O)NCCNc2nccc(-c3c(-c4ccc(F)cc4)nc4sccn34)n2)cc1
IC50 (DU-145 [1]): 1.04 µM
Ratio IC50 (DU-145 [2]): 3
inhibition (INH) (HT-29): 85.38%

SMILES: COc1ccc2c(c1)sc1nc(/C=C/C(=O)c3ccc(OC)c(O)c3)cn12
IC50 (MDA-MB-231 [3]): 1.3 µM

SMILES: COC(=O)Nc1nc2cc(C(=O)c3cccs3)ccc2[nH]1 [NOCODAZOLE]
Activity (A549 [4]): 62.9%
IC50 (MDA-MB-231 [5]): 2.37 µM
IC50 (MCF7): 2.37 µM
IC50 (A549 [6]): 1.14 µM
IC50 (MDA-MB-231 [3]): 1.9 µM
IC50 (A549 [7]): 1.81 µM
inhibition (A549 [8]): 64.7%
IC50 [9]: 1.99 µM

SMILES: CCCS(=O)(=O)Nc1ccc(F)c(C(=O)c2c[nH]c3ncc(-c4ccc(Cl)cc4)cc23)c1F [VEMURAFENIB]
IC50 (A-375 [10]): 5.9 µM

SMILES: COc1ccc(-c2nc3sccn3c2/C=C/C(=O)c2cc(OC)c(OC)c(OC)c2)cc1
IC50 (OVCAR-5): 1.99 µM

SMILES: COc1ccc(-c2nc3sccn3c2-c2nc3ccc(C(F)(F)F)cc3[nH]2)cc1
IC50 (A549 [7]): 1.08 µM
Activity (A549 [11]): 15.1%
Activity (A549 [12]): 56.3%
inhibition (A549 [8]): 68.1%
IC50 [9]: 1.68 µM
Activity (A549 [13]): 14.94%
Activity (A549 [14]): 43.62%

SMILES: COc1ccc(-c2nc3sccn3c2/C=N/NC(=O)c2cccc(O)c2)cc1
Activity (MDA-MB-231 [25]): 72.4%

More lines, main results first:

IC50 (A-375 [15]): 0.18 µM
IC50 (MDA-MB-435): 0.18 µM
IC50 (SK-MEL-28): 0.18 µM
IC50 [17]: 0.19 µM
SMILES: O=C(NCCNc1nccc(-c2c(-c3cccc(O)c3)nc3sccn23)n1)c1ccccc1
IC50 (UACC-62 [16]): 0.18 µM
Activity (UACC-62 [18]): 53.33%

IC50 [19]: 0.021 µM
inhibition [20]: 66.3%
inhibition [21]: 99.6%
SMILES: O=[N+]([O-])c1cccc(-c2nc3sccn3c2-c2ccnc(NCCCNS(=O)(=O)c3cccc(F)c3)n2)c1
inhibition (INH) (Breast carcinoma cell): >80%
inhibition (INH) (CNS carcinoma cell): 70%
inhibition (INH) [22]: >80%
inhibition (INH) (Leukemic tumor cell line): >90%
inhibition (INH) (Melanoma tumor cell line): 100%
inhibition (INH) [23]: >80%
inhibition (INH) (Ovarian cancer cell line): >80%
inhibition (INH) (Prostatic carcinoma cell): >90%
inhibition (INH) (Renal cancer cell line): >70%
IC50 (A-375 [10]): 2.99 µM
IC50 [24]: 80 µM

IC50 (HCT-116): 1.1 µM
SMILES: C/C(=N\N=C1\S/C(=N\Nc2ccccc2)C(=O)N1N)c1sc2nc(-c3ccc(C)cc3)cn2c1C

IC50 [19]: 0.035 µM
SMILES: O=[N+]([O-])c1cccc(-c2nc3sccn3c2-c2ccnc(NCCCNS(=O)(=O)c3ccc(F)cc3)n2)c1
inhibition (INH) (Breast carcinoma cell): >80%
inhibition (INH) (CNS carcinoma cell): 70%
inhibition (INH) [22]: >80%
inhibition (INH) (Leukemic tumor cell line): >90%
inhibition (INH) (Melanoma tumor cell line): 100%
inhibition (INH) [23]: >80%
inhibition (INH) (Ovarian cancer cell line): >80%
inhibition (INH) (Prostatic carcinoma cell): >90%
inhibition (INH) (Renal cancer cell line): >70%
IC50 (A-375 [10]): 7.96 µM
IC50 [24]: 76 µM

IC50 (A-375 [15]): 1.95 µM
IC50 (MDA-MB-435): 1.95 µM
IC50 (SK-MEL-28): 1.95 µM
GI50 (OVCAR-3): 2.95 µM
SMILES: CNC(=O)c1cc(Oc2ccc(NC(=O)Nc3ccc(Cl)c(C(F)(F)F)c3)cc2)ccn1 [SORAFENIB]
IC50 (UACC-62 [16]): 1.95 µM
IC50 (A-375 [10]): 10.3 µM
